“Also recorded” adds a separate entry of the source. Where a name gives a salt, the structure may show the parent alone.
What was measured:
[1] = target: T1, gelatinase B from neutrophils (Homo sapiens, UniProt P14780); assay: gelatinase (inhibitor) microtiter plate assay with biotinylated gelatin; format: biochemical; set-up: endogenous in cells; host or cells: human neutrophils stimulated with lipopolysaccharide; conditioned medium; conditions: for gelatinase B inhibitory activity in the plate assay (in words): qualitative statements
Protocol: The measurement of gelatinase activity was based on the detection of non-degraded biotinylated gelatin with a streptavidin-peroxidase conjugate. This test is based on the biotin-avidin method described by Sorbi et al. (25) but modified to a one plate assay (schematically represented in Fig. 1.). Gelatin (1mg/ml) was dissolved in 0.1 M sodium bicarbonate pH 8.3 by heating to 40°C. Biotin-N-hydroxysuccinimide ester was dissolved in dimethylsulfoxide (Me2SO) and was added to the gelatin in a 15-fold molar excess. The mixture was allowed to react overnight at 4°C and the biotinylated gelatin was then dialyzed against phosphate buffered saline (PBS). Neutrophil granulocyte (Neu) medium was collected from human neutrophils after stimulation with lipopolysaccharide (1µg/ml) overnight at 37°C in Minimal Essential Medium. Cells were removed by 10 min centrifugation at 1000 g. Purified gelatinase was obtained by one-step affinity chromatography of neutrophil medium on a gelatin-sepharose column as described (8).
Modified flat bottom 96-well ELISA plates were coated overnight with 0.5 µg/ml avidin in distilled water. The plates were then blocked with 0.3% bovine serum albumin (BSA, Sigma) in PBS for 1 hour at 37°C. Biotinylated gelatin was diluted to 50 µg/ml and 100µl was added to the avidin-coated wells. After incubation for one hour at 20°C, the plate was rinsed with PBS. Medium containing the secreted gelatinases from human neutrophils (dilution range 1/3-1/3^11) and the inhibitors were diluted in incubation buffer (50 mM Tris-HCl pH 7.5, 10 mM CaCl2, 0.02% (W/V) NaN3, 1% (V/V) Triton X-100) and 100 µl of each were mixed. 190 µl of the mixture was added to the gelatin-coated plates and allowed to digest the gelatin overnight at 37°C. The plates were then washed with PBS and each well was incubated with 100 µl peroxidase-conjugated-streptavidin at a 1:2000 dilution for 1 hour at 37°C. After rinsing the plate, the ABTS substrate was added (0.5 mg/ml solution containing 0.1 M citric acid, 0.2 M Na2HPO4, pH 4.3, 0.07 µl/ml 30% H2O2) and the optical density was read at 405 nm after 10 min. incubation at room temperature. Additional information on published test systems used here for comparison.
Gelatin is biotinylated and bound to avidin-coated microtiter plates. By addition of gelatinases the number of free biotin groups decreases and proportionally less streptavidin-peroxidase is bound to the residual substrate. Bound streptavidin-peroxidase activity is measured spectrophotometrically by reaction of peroxide with ABTS. Inhibition of gelatinase is obtained by the addition of inhibitor to a known amount of gelatinase prior to application to the plates. The peroxidase activity increases proportionally with the inhibitory activity.
Plates were first coated with 10µg/ml avidin and 50µg/ml biotinylated gelatin (theoretically saturating the avidin binding sites). As the sensitivity of the assay is dependent on the detection of the minimal amount of degraded biotinylated gelatin, we investigated wether decreasing the amount of biotin-gelatin (50 µg/ml-23 ng/ml) bound to the avidin-coated (10µg/ml) plate increased the sensitivity of the assay. […] Thus it was verified whether a decrease in the avidin coating could make the assay more sensitive (Fig. 2). […] In all further examples plates were coated with 0.5 µg/ml avidin and 50 µg/ml gelatin-biotin.
The titration curves of gelatinase inhibition were always related to a blanc curve and this for enzyme concentrations within the slope of the curve (vertical dotted lines Fig. 3). The decrease in enzyme activity to which the inhibitor-incubated sample corresponded was defined as the inhibition factor (IF).

[2] = target: T1, gelatinase B from neutrophils; assay: zymography inhibition assay, inhibitor in developing buffer; format: biochemical; set-up: The 92 kDa neutrophil gelatinase is indicated with an arrowhead; endogenous in cells; host or cells: human neutrophils; purified from conditioned medium on gelatin-Sepharose; conditions: qualitative statements
Protocol: Quantitative zymography was performed as described (7,8). Briefly, 40 µl of loading buffer was added to 40 µl of each sample and applied on 7.5% polyacrylamide gels which had been co-polymerised with 0.1% (w/v) gelatin. Stacking gels contained 5% polyacrylamide. The gels were run at 4°C for 16h at 90V. The gels were then incubated in washing buffer (50 mM Tris-HCl pH 7.5, 10mM CaCl2, O.O2% (W/V) NaN3, 2.5% (v/v) Triton X-100) at room temperature, 2x20 min to remove sodium dodecyl sulfate and overnight in developing buffer (50 mM Tris-HCl pH 7.5, 10mM CaCl2, O.O2% (w/v) NaN3, 1% (v/v) Triton X-100) at 37°C. The gels were then stained in Coomassie brilliant blue R-250 and destained in methanol/acetic acid. The sites of gelatinase activity appeared as unstained bands on a blue background and were quantified by computerised image analysis through scanning densitometry with a PDI scanner (Pharmacia, Belgium) and the PDI software package. For inhibition experiments, the inhibitors were dissolved in the developing buffer at the appropriate concentration. […] The enzyme activity was developed by staining of the substrate with Coomassie blue and quantification of the substrate digestion by scanning densitometry. […] The enzyme activity was developed by staining of the substrate with Coomassie blue and quantification of the substrate digestion by scanning densitometry. […]

[3] = tetracycline concentration 1.67 mg/ml
[4] = tetracycline concentration 0,83 mg/ml
[5] = tetracycline concentration 3.33 mg/ml
[6] = tetracycline concentration 3.33 mg/ml, HCl

T1 sequence (P14780 94-707): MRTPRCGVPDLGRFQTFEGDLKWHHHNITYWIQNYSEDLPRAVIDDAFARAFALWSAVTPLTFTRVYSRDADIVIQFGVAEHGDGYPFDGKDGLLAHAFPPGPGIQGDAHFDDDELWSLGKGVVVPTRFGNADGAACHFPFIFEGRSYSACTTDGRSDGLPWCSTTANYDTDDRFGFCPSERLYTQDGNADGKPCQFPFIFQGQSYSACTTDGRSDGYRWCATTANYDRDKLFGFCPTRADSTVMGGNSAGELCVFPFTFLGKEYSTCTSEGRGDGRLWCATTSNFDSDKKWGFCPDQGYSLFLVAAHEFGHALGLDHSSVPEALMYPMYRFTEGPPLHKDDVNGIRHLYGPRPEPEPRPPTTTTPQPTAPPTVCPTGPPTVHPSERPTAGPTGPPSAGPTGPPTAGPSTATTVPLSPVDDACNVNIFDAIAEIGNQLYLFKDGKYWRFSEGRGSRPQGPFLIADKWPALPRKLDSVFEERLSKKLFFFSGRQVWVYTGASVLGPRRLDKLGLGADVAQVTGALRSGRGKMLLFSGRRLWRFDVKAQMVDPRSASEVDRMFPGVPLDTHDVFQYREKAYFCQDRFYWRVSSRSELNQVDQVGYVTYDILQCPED

Compound | Inhibition factor (IF) [1, 3] | gelatinase B inhibitory activity in the plate assay (in words) [1] | Inhibition factor (IF) [1, 4] | Inhibition factor (IF) [1, 5] | also measured
4-epitetracycline HCl | 3 | – | – | – | –
C[C@H]1c2cccc(O)c2C(=O)C2=C(O)[C@]3(O)C(=O)C(C(N)=O)=C(O)[C@@H](N(C)C)[C@@H]3[C@@H](O)[C@@H]21 [doxycycline hyclate] | – | not active | – | – | –
Cc1c2c(c(O)c3c(O)cccc13)C(=O)C1(O)C(O)=C(C(N)=O)C(=O)C(N(C)C)C1C2 (centres unmarked) [4-epianhydrotetracycline HCl] | 3 | more active | 2 | precipitation | –
CN(C)[C@@H]1C(O)=C(C(N)=O)C(=O)[C@@]2(O)C(O)=C3C(=O)c4c(O)cccc4C[C@H]3C[C@@H]12.Cl [6-deoxy-6-demethyltetracycline HCl] | 5 | – | 3 | 8 | –
CN(C)[C@@H]1C(O)=C(C(N)=O)C(=O)[C@@]2(O)C(O)=C3C(=O)c4c(O)ccc(Cl)c4[C@@H](O)[C@H]3C[C@@H]12 [demethylchlortetracycline HCl] | – | not active | – | – | –
CN(C)c1ccc(O)c2c1C[C@H]1C[C@H]3[C@@H](N(C)C)C(O)=C(C(N)=O)C(=O)[C@@]3(O)C(O)=C1C2=O [4-epiminocycline HCl] | – | less active | – | 3 | –
Cc1c2c(c(O)c3c(O)ccc(Cl)c13)C(=O)C1(O)C(O)=C(C(N)=O)C(=O)C(N(C)C)C1C2 (centres unmarked) [4-epianhydrochlortetracycline HCl] | – | less active | – | – | Inhibition factor (IF) [1, 6]: 3
7-aminominocycline HCl | – | – | – | precipitation | –
Cc1c2c(c(O)c3c(O)ccc(Cl)c13)C(=O)C1(O)C(O)=C(C(N)=O)C(=O)C(N(C)C)C1C2 (centres unmarked) [anhydrochlortetracycline HCl] | – | – | – | – | Inhibition factor (IF) ([1]; tetracycline concentration 1.67 mg/ml, HCl): 2; Inhibition factor (IF) [1, 6]: 6
CN(C)C1C(=O)C(C(N)=O)=C(O)C2(O)C(=O)C3=C(O)c4c(O)cccc4C(C)(O)C3C(O)C12 (centres unmarked) [4-epioxytetracyline base] | 3 | more active | – | 20 | –
C=C1c2cccc(O)c2C(=O)C2=C(O)[C@]3(O)C(=O)C(C(N)=O)=C(O)[C@@H](N(C)C)[C@@H]3[C@@H](O)[C@H]12 [metacycline HCl] | 8 | very active | 3 | 27 | –
CN(C)[C@@H]1C(=O)C(C(N)=O)=C(O)[C@@]2(O)C(=O)C[C@@H]([C@]3(C)OC(=O)c4c(O)ccc(Cl)c43)C[C@@H]12 [isochlortetracycline HCl] | – | – | – | 3 | –
CN(C)[C@@H]1C(O)=C(C(N)=O)C(=O)[C@@]2(O)C(O)=C3C(=O)c4c(O)cccc4[C@@](C)(O)[C@H]3C[C@@H]12 [tetracycline HCl] | 3 | – | – | 8 | –
CN(C)C1C(=O)C(C(N)=O)=C(O)C2(O)C(=O)C3=C(O)c4c(O)ccc(Cl)c4C(C)(O)C3CC12 (centres unmarked) [4-epichlortetracycline HCl] | 9 | less active | 3 | precipitation | –
CN(C)c1ccc(O)c2c1C[C@H]1C[C@H]3[C@H](N(C)C)C(O)=C(C(N)=O)C(=O)[C@@]3(O)C(O)=C1C2=O [minocycline HCl] | 3 | – | – | 8 | gelatinase B inhibitory activity in the plate assay (in words) ([1]; listed as minocyclin, HCl): active as an inhibitor; gelatinase B inhibitory activity in the plate assay (in words) ([1]; listed as minocycline, HCl): confirmed in the plate assay; also recorded: active; inhibition of gelatinase B on zymography (in words) [2]: inhibits gelatinase B in a dose-dependent way
CN(C)[C@@H]1C(O)=C(C(N)=O)C(=O)[C@@]2(O)C(O)=C3C(=O)c4c(O)ccc(Cl)c4[C@@](C)(O)[C@H]3C[C@@H]12 [chlortetracycline HCl] | 27 | – | 9 | 45 | gelatinase B inhibitory activity in the plate assay (in words) ([1]; listed as Chlortetracycline HCl, HCl): most potent inhibitor; gelatinase B inhibitory activity in the plate assay (in words) ([1]; listed as Chlortetracycline, HCl): more active as a gelatinase inhibitor than the antibiotically more potent minocycline; also recorded: much more active than tetracycline; also recorded: most active
